Data published in PubChem BioAssay (NCI).
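Test compounds were applied to cells in 96-well plates for 48 hours at 5 doses. Abbreviation: GI50, concentration required for 50% inhibition of growth. TGI is the concentration that stops growth completely.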

Legend:
Assay in all cases: NCI anticancer screen, dose series, 48 h
UACC-257 melanoma = tested on: UACC-257 melanoma
K-562 leukemia = tested on: K-562 leukemia
MDA-MB-231 breast = tested on: MDA-MB-231 breast
CAKI-1 renal = tested on: CAKI-1 renal
MCF7 breast = tested on: MCF7 breast
SK-MEL-28 melanoma = tested on: SK-MEL-28 melanoma
HT29 colon = tested on: HT29 colon
HCT-116 colon = tested on: HCT-116 colon
SK-MEL-5 melanoma = tested on: SK-MEL-5 melanoma
SF-539 CNS = tested on: SF-539 CNS
LOX IMVI melanoma = tested on: LOX IMVI melanoma
DU-145 prostate = tested on: DU-145 prostate
HOP-62 NSCLC = tested on: HOP-62 NSCLC
KM12 colon = tested on: KM12 colon
SF-268 CNS = tested on: SF-268 CNS
SNB-19 CNS = tested on: SNB-19 CNS
SK-MEL-2 melanoma = tested on: SK-MEL-2 melanoma
OVCAR-4 ovarian = tested on: OVCAR-4 ovarian
HOP-92 NSCLC = tested on: HOP-92 NSCLC
HCT-15 colon = tested on: HCT-15 colon
HS 578T breast = tested on: HS 578T breast
RXF 393 renal = tested on: RXF 393 renal
NCI-H226 lung = tested on: NCI-H226 lung
HL-60(TB) leukemia = tested on: HL-60(TB) leukemia
T-47D breast = tested on: T-47D breast
A498 renal = tested on: A498 renal
RPMI-8226 leukemia = tested on: RPMI-8226 leukemia
A549 NSCLC = tested on: A549 NSCLC
SW-620 colon = tested on: SW-620 colon
EKVX NSCLC = tested on: EKVX NSCLC
NCI-H522 lung = tested on: NCI-H522 lung
BT-549 breast = tested on: BT-549 breast
OVCAR-5 ovarian = tested on: OVCAR-5 ovarian
M14 melanoma = tested on: M14 melanoma
SF-295 CNS = tested on: SF-295 CNS
SK-OV-3 ovarian = tested on: SK-OV-3 ovarian
COLO 205 colon = tested on: COLO 205 colon
SN12C renal = tested on: SN12C renal
MDA-MB-435 = tested on: MDA-MB-435
NCI/ADR-RES ovarian = tested on: NCI/ADR-RES ovarian
TK-10 renal = tested on: TK-10 renal
SR leukemia = tested on: SR leukemia
OVCAR-8 ovarian = tested on: OVCAR-8 ovarian
NCI-H23 lung = tested on: NCI-H23 lung
OVCAR-3 ovarian = tested on: OVCAR-3 ovarian
MOLT-4 leukemia = tested on: MOLT-4 leukemia
UO-31 renal = tested on: UO-31 renal
U251 CNS = tested on: U251 CNS
MALME-3M melanoma = tested on: MALME-3M melanoma
CCRF-CEM leukemia = tested on: CCRF-CEM leukemia
IGROV1 ovarian = tested on: IGROV1 ovarian
ACHN renal = tested on: ACHN renal
SNB-75 CNS = tested on: SNB-75 CNS
HCC-2998 colon = tested on: HCC-2998 colon
786-0 renal = tested on: 786-0 renal
NCI-H460 lung = tested on: NCI-H460 lung
PC-3 prostate = tested on: PC-3 prostate
UACC-62 melanoma = tested on: UACC-62 melanoma

SMILES: Cn1c(=O)n(CCCO)c(=O)c2c1nc(Oc1cccc(OC(F)(F)F)c1)n2Cc1ccc(Cl)cc1
- GI50 (UACC-257 melanoma): 17.5 µM
- TGI (UACC-257 melanoma): 34.5 µM
- GI50 (K-562 leukemia): 7.72 µM
- TGI (K-562 leukemia): 68.8 µM
- GI50 (MDA-MB-231 breast): 14.6 µM
- TGI (MDA-MB-231 breast): 32.1 µM
- GI50 (CAKI-1 renal): 9.05 µM
- TGI (CAKI-1 renal): 22.6 µM
- GI50 (MCF7 breast): 4.77 µM
- TGI (MCF7 breast): 22.2 µM
- GI50 (SK-MEL-28 melanoma): 14.1 µM
- TGI (SK-MEL-28 melanoma): 29.5 µM
- GI50 (HT29 colon): 8.01 µM
- TGI (HT29 colon): 23.2 µM
- GI50 (HCT-116 colon): 5.46 µM
- TGI (HCT-116 colon): 19.6 µM
- GI50 (SK-MEL-5 melanoma): 16 µM
- TGI (SK-MEL-5 melanoma): 30.9 µM
- GI50 (SF-539 CNS): 12.9 µM
- TGI (SF-539 CNS): 26.9 µM
- GI50 (LOX IMVI melanoma): 12 µM
- TGI (LOX IMVI melanoma): 28.8 µM
- GI50 (DU-145 prostate): 13.2 µM
- TGI (DU-145 prostate): 27.5 µM
- GI50 (HOP-62 NSCLC): 16 µM
- TGI (HOP-62 NSCLC): 33.3 µM
- GI50 (KM12 colon): 13.5 µM
- TGI (KM12 colon): 32.4 µM
- GI50 (SF-268 CNS): 8.54 µM
- TGI (SF-268 CNS): 24.5 µM
- GI50 (SNB-19 CNS): 18.4 µM
- TGI (SNB-19 CNS): 40.1 µM
- GI50 (SK-MEL-2 melanoma): 14.7 µM
- TGI (SK-MEL-2 melanoma): 32.6 µM
- GI50 (OVCAR-4 ovarian): 13.2 µM
- TGI (OVCAR-4 ovarian): 30.4 µM
- GI50 (HOP-92 NSCLC): 11 µM
- TGI (HOP-92 NSCLC): 24.5 µM
- GI50 (HCT-15 colon): 10.2 µM
- TGI (HCT-15 colon): 28.7 µM
- GI50 (HS 578T breast): 16.3 µM
- TGI (HS 578T breast): 43.4 µM
- GI50 (RXF 393 renal): 11.2 µM
- TGI (RXF 393 renal): 27.3 µM
- GI50 (NCI-H226 lung): 16.8 µM
- TGI (NCI-H226 lung): 38.4 µM
- GI50 (HL-60(TB) leukemia): 5.78 µM
- TGI (HL-60(TB) leukemia): 22.9 µM
- GI50 (T-47D breast): 3.78 µM
- TGI (T-47D breast): 21 µM
- GI50 (A498 renal): 13.8 µM
- TGI (A498 renal): 26.9 µM
- GI50 (RPMI-8226 leukemia): 10.4 µM
- TGI (RPMI-8226 leukemia): 51.3 µM
- GI50 (A549 NSCLC): 11.2 µM
- TGI (A549 NSCLC): 25.5 µM
- GI50 (SW-620 colon): 13.1 µM
- TGI (SW-620 colon): 31.2 µM
- GI50 (EKVX NSCLC): 12.4 µM
- TGI (EKVX NSCLC): 32.2 µM
- GI50 (NCI-H522 lung): 6.06 µM
- TGI (NCI-H522 lung): 23.2 µM
- GI50 (BT-549 breast): 12.9 µM
- TGI (BT-549 breast): 26.4 µM
- GI50 (OVCAR-5 ovarian): 13.1 µM
- TGI (OVCAR-5 ovarian): 26.3 µM
- GI50 (M14 melanoma): 11.8 µM
- TGI (M14 melanoma): 27.4 µM
- GI50 (SF-295 CNS): 13 µM
- TGI (SF-295 CNS): 28.5 µM
- GI50 (SK-OV-3 ovarian): 18.1 µM
- TGI (SK-OV-3 ovarian): 34 µM
- GI50 (COLO 205 colon): 12.6 µM
- TGI (COLO 205 colon): 30.3 µM
- GI50 (SN12C renal): 13 µM
- TGI (SN12C renal): 29.8 µM
- GI50 (MDA-MB-435): 11.8 µM
- TGI (MDA-MB-435): 27.2 µM
- GI50 (NCI/ADR-RES ovarian): 11.4 µM
- TGI (NCI/ADR-RES ovarian): 33.4 µM
- GI50 (TK-10 renal): 14.7 µM
- TGI (TK-10 renal): 30.1 µM
- GI50 (SR leukemia): 3.79 µM
- TGI (SR leukemia): 18.2 µM
- GI50 (OVCAR-8 ovarian): 14.4 µM
- TGI (OVCAR-8 ovarian): 37.6 µM
- GI50 (NCI-H23 lung): 15.8 µM
- TGI (NCI-H23 lung): 37.6 µM
- GI50 (OVCAR-3 ovarian): 11.4 µM
- TGI (OVCAR-3 ovarian): 25.2 µM
- GI50 (MOLT-4 leukemia): 5.21 µM
- TGI (MOLT-4 leukemia): 21.7 µM
- GI50 (UO-31 renal): 3.91 µM
- TGI (UO-31 renal): 17.7 µM
- GI50 (U251 CNS): 12.5 µM
- TGI (U251 CNS): 29.8 µM
- GI50 (MALME-3M melanoma): 15.7 µM
- TGI (MALME-3M melanoma): 31.6 µM
- GI50 (CCRF-CEM leukemia): 14.6 µM
- TGI (CCRF-CEM leukemia): 39.8 µM
- GI50 (IGROV1 ovarian): 14.2 µM
- TGI (IGROV1 ovarian): 31.9 µM
- GI50 (ACHN renal): 10.7 µM
- TGI (ACHN renal): 23.4 µM
- GI50 (SNB-75 CNS): 11.8 µM
- TGI (SNB-75 CNS): 26.7 µM
- GI50 (HCC-2998 colon): 15 µM
- TGI (HCC-2998 colon): 33.9 µM
- GI50 (786-0 renal): 12.5 µM
- TGI (786-0 renal): 27.4 µM
- GI50 (NCI-H460 lung): 8.5 µM
- TGI (NCI-H460 lung): 23.9 µM
- GI50 (PC-3 prostate): 13.7 µM
- TGI (PC-3 prostate): 29.3 µM
- GI50 (UACC-62 melanoma): 13.2 µM
- TGI (UACC-62 melanoma): 29.1 µM
